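Growth conditions: 96-well plates. Treatment: test compound, 48 hours, 5 concentrations. Analysis: linear interpolation between bracketing concentrations; unreached endpoints set to highest concentration. GI50 = concentration required for 50% inhibition of growth.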 Calls of active or inactive are those of the source. Rule as the data show it: active = GI50 up to about 1.1 µM and inactive = higher.
Key:
Assay in all cases: NCI-60 cell line screen, 48 h
CCRF-CEM = tested on: CCRF-CEM
MDA-N = tested on: MDA-N
RXF 393 = tested on: RXF 393
SR = tested on: SR
MOLT-4 = tested on: MOLT-4
SW-620 = tested on: SW-620
RPMI-8226 = tested on: RPMI-8226
ACHN = tested on: ACHN
SNB-75 = tested on: SNB-75
DU-145 = tested on: DU-145
OVCAR-4 = tested on: OVCAR-4
786-0 = tested on: 786-0
UO-31 = tested on: UO-31
BT-549 = tested on: BT-549
SF-295 = tested on: SF-295
A549 = tested on: A549
SF-268 = tested on: SF-268
K562 = tested on: K562
NCI-H226 = tested on: NCI-H226

Structure (SMILES) | GI50 (CCRF-CEM) | GI50 (MDA-N) | GI50 (RXF 393) | GI50 (SR) | GI50 (MOLT-4) | GI50 (SW-620) | GI50 (RPMI-8226) | GI50 (ACHN) | GI50 (SNB-75) | GI50 (DU-145) | GI50 (OVCAR-4) | GI50 (786-0) | GI50 (UO-31) | GI50 (BT-549) | GI50 (SF-295) | GI50 (A549) | GI50 (SF-268) | GI50 (K562) | GI50 (NCI-H226)
OCC1NCC(O)C(O)C1O (stereo unspecified) | > 100 µM (inactive) | > 100 µM (inactive) | > 100 µM (inactive) | > 100 µM (inactive) | > 100 µM (inactive) | > 100 µM (inactive) | > 100 µM (inactive) | > 100 µM (inactive) | > 100 µM (inactive) | > 100 µM (inactive) | > 100 µM (inactive) | > 100 µM (inactive) | > 100 µM (inactive) | > 100 µM (inactive) | > 10 µM (inactive) | > 100 µM (inactive) | > 100 µM (inactive) | – | –
COc1cc(NCC2COc3c(ccc(OC)c3OC)C2=O)c([N+](=O)[O-])cc1OC (stereo unspecified) | 53.2 µM (inactive) | > 100 µM (inactive) | – | 30.8 µM (inactive) | 16.4 µM (inactive) | > 100 µM (inactive) | 12.3 µM (inactive) | > 100 µM (inactive) | 60.1 µM (inactive) | > 100 µM (inactive) | 82.4 µM (inactive) | 15.6 µM (inactive) | > 100 µM (inactive) | > 10 µM (inactive) | 66.1 µM (inactive) | > 100 µM (inactive) | 67.3 µM (inactive) | 31 µM (inactive) | > 100 µM (inactive)
CC(C)NC(=O)OCC[S+]([O-])c1c(Cl)c(Cl)nn1C (stereo unspecified) | 27.5 µM (inactive) | 38.7 µM (inactive) | – | 48.9 µM (inactive) | 34.8 µM (inactive) | 36.2 µM (inactive) | 64.9 µM (inactive) | 46.1 µM (inactive) | > 100 µM (inactive) | > 100 µM (inactive) | 49.8 µM (inactive) | 24.9 µM (inactive) | > 100 µM (inactive) | > 10 µM (inactive) | > 100 µM (inactive) | > 100 µM (inactive) | > 100 µM (inactive) | 34 µM (inactive) | > 100 µM (inactive)
O=C1CC2C(=O)c3ccccc3CC2c2ccccc21 (stereo unspecified) | – | 36.3 µM (inactive) | – | 13.8 µM (inactive) | 22.4 µM (inactive) | 49 µM (inactive) | 15.2 µM (inactive) | 30.7 µM (inactive) | 6.49 µM (inactive) | 50.5 µM (inactive) | 29.5 µM (inactive) | 92.3 µM (inactive) | 12 µM (inactive) | 81.8 µM (inactive) | 49.2 µM (inactive) | 36.3 µM (inactive) | 56.8 µM (inactive) | 21.3 µM (inactive) | 36.6 µM (inactive)
Cc1ccsc1/C=N/Nc1ccc2ccccc2n1 | 27.5 µM (inactive) | 43.4 µM (inactive) | 30.5 µM (inactive) | – | 8.04 µM (inactive) | 85.1 µM (inactive) | 48.8 µM (inactive) | 15.1 µM (inactive) | 32.9 µM (inactive) | 48.9 µM (inactive) | 29.7 µM (inactive) | 30.8 µM (inactive) | 26.7 µM (inactive) | 34.4 µM (inactive) | 11.1 µM (inactive) | 7.43 µM (inactive) | 32.1 µM (inactive) | 59.8 µM (inactive) | 35.9 µM (inactive)
CCOC(=O)c1ccc(Nc2nc3ccccc3n3cccc23)cc1 | 0.0217 µM (active) | 3.15 µM (inactive) | 14.3 µM (inactive) | 8.97 µM (inactive) | > 100 µM (inactive) | 9.38 µM (inactive) | > 100 µM (inactive) | 72.8 µM (inactive) | 22.2 µM (inactive) | 86.1 µM (inactive) | – | 26.8 µM (inactive) | > 100 µM (inactive) | > 100 µM (inactive) | 27.1 µM (inactive) | 86.5 µM (inactive) | 35.7 µM (inactive) | 29.8 µM (inactive) | –
COC(=O)C(C)(C)NC(=O)C(Cc1ccccc1)Nc1ncnc2c1ncn2-c1ccc(OC)cc1 (stereo unspecified) | 13.5 µM (inactive) | 20.3 µM (inactive) | – | > 10 µM (inactive) | > 10 µM (inactive) | 19.9 µM (inactive) | 72.9 µM (inactive) | > 100 µM (inactive) | 24.1 µM (inactive) | 47.3 µM (inactive) | 12.7 µM (inactive) | 28.8 µM (inactive) | 96.4 µM (inactive) | 40.9 µM (inactive) | 73.1 µM (inactive) | 22.5 µM (inactive) | 31 µM (inactive) | > 100 µM (inactive) | 32.1 µM (inactive)
Cc1cc(S(=O)(=O)[N-]C(=C(C#N)C#N)[n+]2ccc(N(C)C)cc2)c(SCC(=O)O)cc1Cl | > 100 µM (inactive) | > 100 µM (inactive) | > 100 µM (inactive) | – | > 100 µM (inactive) | – | > 100 µM (inactive) | > 100 µM (inactive) | – | > 100 µM (inactive) | > 100 µM (inactive) | > 100 µM (inactive) | > 100 µM (inactive) | > 100 µM (inactive) | > 100 µM (inactive) | > 100 µM (inactive) | > 100 µM (inactive) | > 100 µM (inactive) | > 100 µM (inactive)
Cc1ccc(S(=O)(=O)N2CCCSCCN(S(=O)(=O)c3ccc(C)cc3)CCCSCC2)cc1 | – | > 100 µM (inactive) | > 100 µM (inactive) | – | > 100 µM (inactive) | > 100 µM (inactive) | > 100 µM (inactive) | > 100 µM (inactive) | > 100 µM (inactive) | > 100 µM (inactive) | > 100 µM (inactive) | > 100 µM (inactive) | 51.8 µM (inactive) | > 100 µM (inactive) | > 100 µM (inactive) | > 100 µM (inactive) | > 100 µM (inactive) | > 100 µM (inactive) | > 100 µM (inactive)
CC(C)(C)C1CCC(=O)/C(=C/CC2CC(=O)N(c3ccccc3)C(=O)C2)C1 (stereo unspecified) | – | 22.6 µM (inactive) | – | 10.3 µM (inactive) | 34.1 µM (inactive) | 23.4 µM (inactive) | 18.7 µM (inactive) | 19.9 µM (inactive) | 21.9 µM (inactive) | 19.2 µM (inactive) | 32.7 µM (inactive) | 19.8 µM (inactive) | 16.6 µM (inactive) | 20.4 µM (inactive) | 47.8 µM (inactive) | – | 20.1 µM (inactive) | 19.5 µM (inactive) | 16.1 µM (inactive)
On1c(-c2ccccc2)nc2ccccc2c1=S | 1.55 µM (inactive) | 18.9 µM (inactive) | 25.5 µM (inactive) | – | 2.04 µM (inactive) | 6.82 µM (inactive) | 3.27 µM (inactive) | 5.21 µM (inactive) | 19.3 µM (inactive) | 7.64 µM (inactive) | 2.22 µM (inactive) | 3.95 µM (inactive) | 3.39 µM (inactive) | > 100 µM (inactive) | 2.7 µM (inactive) | 2.84 µM (inactive) | 3.47 µM (inactive) | 3.91 µM (inactive) | 9.16 µM (inactive)
O=C(CN1CCN(Cc2ccccc2)CC1)N1CCCn2c1nc1ccccc1c2=O | > 100 µM (inactive) | > 100 µM (inactive) | – | > 100 µM (inactive) | > 100 µM (inactive) | > 100 µM (inactive) | > 100 µM (inactive) | > 100 µM (inactive) | > 100 µM (inactive) | > 100 µM (inactive) | > 100 µM (inactive) | > 100 µM (inactive) | > 100 µM (inactive) | > 100 µM (inactive) | > 100 µM (inactive) | > 100 µM (inactive) | > 100 µM (inactive) | > 100 µM (inactive) | 29.2 µM (inactive)
CC(C)=C1C(=O)c2c(Cl)sc(Cl)c2C1=O | 26.1 µM (inactive) | 22.6 µM (inactive) | – | 27.2 µM (inactive) | 36.6 µM (inactive) | 28.7 µM (inactive) | – | 21 µM (inactive) | 18.4 µM (inactive) | 22.4 µM (inactive) | 14.5 µM (inactive) | 22.9 µM (inactive) | 23.4 µM (inactive) | 22 µM (inactive) | 39.5 µM (inactive) | 26.1 µM (inactive) | 30.2 µM (inactive) | 37.6 µM (inactive) | 35.6 µM (inactive)
CS(=O)(=O)c1ccc(/C=N/NC(N)=S)cc1 | – | > 100 µM (inactive) | > 100 µM (inactive) | – | > 100 µM (inactive) | > 100 µM (inactive) | > 100 µM (inactive) | > 100 µM (inactive) | > 100 µM (inactive) | > 100 µM (inactive) | > 100 µM (inactive) | > 100 µM (inactive) | > 100 µM (inactive) | > 100 µM (inactive) | > 100 µM (inactive) | > 100 µM (inactive) | > 100 µM (inactive) | > 100 µM (inactive) | > 100 µM (inactive)
CC(=O)OCC1OC(N2C(=O)/C(=C\c3ccc(Cl)cc3)C(N)=Nc3ccccc32)C(OC(C)=O)C(OC(C)=O)C1OC(C)=O (stereo unspecified) | – | 17.6 µM (inactive) | 4.34 µM (inactive) | 16.4 µM (inactive) | 6.43 µM (inactive) | 23.2 µM (inactive) | 2.24 µM (inactive) | 20.2 µM (inactive) | 19.1 µM (inactive) | 28.8 µM (inactive) | 20.4 µM (inactive) | 17.7 µM (inactive) | 20.7 µM (inactive) | 27.9 µM (inactive) | 38.8 µM (inactive) | 27.8 µM (inactive) | 18.2 µM (inactive) | 12.5 µM (inactive) | –
CC(=O)C(=NNc1ccc(-n2c(C)nc3ccccc3c2=O)cc1)C(C)=O | > 100 µM (inactive) | > 100 µM (inactive) | – | > 100 µM (inactive) | 22.9 µM (inactive) | > 100 µM (inactive) | 30 µM (inactive) | > 100 µM (inactive) | > 100 µM (inactive) | > 100 µM (inactive) | – | > 100 µM (inactive) | > 100 µM (inactive) | > 100 µM (inactive) | > 100 µM (inactive) | > 100 µM (inactive) | > 100 µM (inactive) | > 100 µM (inactive) | 80.2 µM (inactive)

Source: ChEMBL document CHEMBL1201862, “PubChem BioAssay data set” (2004)
